A short description of series [1]: LNP biodistribution in mice, barcode fold above input (FAI) in tissues. In kind it is in vivo. The note with it: pooled LNP IV tail vein, 4 hours post-dose, fold above input of barcode. On the procedure: Male and female mice aged approximately 8-12 weeks were used for studies described by the present Example. Each mouse was temporarily restrained and pooled LNP was administered IV via tail vein injection in up to five animals per experiment. Age-matched mice was also used to administer vehicle (1×TBS) via tail vein injection in up to three animals per experiment. Additional routes of administration can also be conducted including intracerebral ventricular (ICV), intracisterna manga (ICM), intrathecal (IT), intramuscular (IM), nebulization, intranasal (IN), subcutaneous (SC), intraarticular, and intradermal (ID). At 4 hours post-dose, tissues including liver, spleen, bone marrow, testes, gastrocnemius, quadricep, lung, heart, kidney, and pancreas may be collected for analysis.
RNA from tissues were extracted using the Reliaprep RNA extraction kit, and libraries were prepared using the RNAseq kit, and sequenced on either a MiSeq or NextSeg500.
To screen for preferential LNP delivery to a target tissues, the relative abundance of each barcode in one or more target tissues was measured and compared to the relative abundance of each barcode to its corresponding relative input abundance to determine fold above input (FAI) for each barcode. If the FAI of a barcode in a target tissue is above a threshold or above the FAI of a different LNP in the same tissue, the LNP can be identified as preferentially delivering to the target tissue.
The FAI is the normalized relative abundance of a barcode in a selected sample as compared to its frequency in the input. The FAI of a barcode indicates how a LNP's abundance changes relative to the rest of the LNP pool. The FAI value of the barcode was calculated by normalizing the relative abundance in the barcode sequence counts in the isolated samples to its relative abundance in the administration input. […] The FAI then indicates the performance of an LNP relative to the input LNP composition.

Series [2] in a line: RNA encapsulation efficiency of LNPs by Ribogreen assay. The format is physicochemical. The note with it: LNP of 47.5% ionizable lipid: 40% cholesterol: 2.5% PEG-2000 DMG: 10% DPSC, N/P 4-8. On the procedure: (§1) LNPs were prepared with 47.5% Ionizable Lipid (e.g., a compound provided herein): 40% cholesterol: 2.5% PEG-2000 DMG; and 10% DPSC and an N/P ratio range of 4-8. LNPs were formed by microfluidic mixing of the lipid and NA solutions using a Precision Nanosystems NanoAssemblr Spark or Benchtop series Instruments, according to the manufacturers protocol. A ratio of aqueous to organic solvent of approximately 2:1 or 3:1 was maintained during mixing using differential flow rates. After mixing, LNPs were collected, diluted in phosphate buffer saline (PBS) or Tris-buffered saline (TBS) (approximately 1:1 v/v). Further buffer exchange was conducted using dialysis in PBS or TBS at 4° C. for 4 to 24 hours against a 20 kDa filter. After this initial dialysis, each individual LNP preparation was characterized via dynamic light scattering (DLS) to measure the size (e.g., diameter) and polydispersity. LNPs falling within specific diameter and polydispersity ranges were pooled, and further dialyzed against PBS or TBS at 4° C. for 1 to 4 hours against a 100 kDa dialysis cassette. After the second dialysis, LNPs were sterile filtered using 0.22 μm filter and stored at 4° C. for further use.
RNA concentration and encapsulation efficiency were determined by Ribogreen assay (BioTek Synergy LX plate reader).

Series [3] is described as follows: LNP hydrodynamic diameter and polydispersity index by dynamic light scattering (DLS). The note with it: LNP of 47.5% ionizable lipid: 40% cholesterol: 2.5% PEG-2000 DMG: 10% DPSC, N/P 4-8. In kind it is physicochemical. Here is the method:
as §1
LNP hydrodynamic diameter and polydispersity index (PDI) were measured using high throughput dynamic light scattering (DLS) (Stunner, Unchained Labs). LNPs were diluted 1×TBS or PBS to an appropriate concentration and analyzed.

The test system of the next series is ALAS1 target site. Briefly: In vivo base editing with LNP carrying adenine base editor mRNA and sgRNA, targeted deep sequencing. The note with it: LNP with ABE mRNA + sgRNA, 0.15 mg/kg total RNA, tail vein, Balb/C mice, four to six days post-dose. Here is the method: Exemplary LNP preparations were selected to determine each preparation's ability to perform base editing in a Balb/C mouse model as described herein.
Lipid nanoparticle components were dissolved in 100% ethanol at specified lipid component molar ratios. mRNA encoding an adenine base editor and a chemically-modified sgRNA was dissolved at a mass ratio of 1:1 in 50 mM citrate, pH 4.0, resulting in a concentration of NA cargo of approximately 0.1 mg/mL.
LNP preparations were formulated with molar ratios of 47.5% Ionizable Lipid: 40% Cholesterol: 2.5% PEG2000-DMG: 10% DSPC total lipid to NA mass ratio of 6 to 12. […]
A 3:1 ratio of aqueous to organic solvent was maintained during mixing using differential flow rates. […] After this initial dialysis, each individual LNP preparation was characterized via dynamic light scattering (DLS) to measure size and polydispersity. pKa of a subpopulation of LNP preparations was measured via TNS assay. […]
Age-matched mice were also used to administer vehicle (1×TBS) via tail vein injection as a control. […] Base editing was determined by performing targeted deep sequencing analysis at the ALAS1 target site using extracted genomic DNA. […] Library size and concentration was confirmed by Fragment Analyzer (Agilent) and analyzed for whole genome sequencing using an Illumina HiSeq.

Each structure is given as a SMILES string.

With `CCCCC/C=C\C/C=C\CCCCCCCCC(CCCCCCCC/C=C\C/C=C\CCCCC)OC(=O)CCCN(C)C` [MC3, (6Z,9Z,28Z,31Z)-heptatriaconta-6,9,28,31-tetraen-19-yl 4-(dimethylamino) butanoate], the “FAI (Liver)” value in series [1] (liver) turned out to be 0.50. The “FAI (Lung)” value in series [1] (lung) is on record as 1.02. For the same compound, the “FAI (Spleen)” value in series [1] (spleen) is on record as 1.46.

As to `CC/C=C\CCCCOC(CCC(=O)Oc1ccc(CC(=O)OCCC2CCN(CCSSCCN3CCC(CCOC(=O)Cc4ccc(OC(=O)CCC(OCCCC/C=C\CC)OCCCC/C=C\CC)cc4)CC3)CC2)cc1)OCCCC/C=C\CC` [7-9, (((((disulfanediylbis(ethane-2,1-diyl))bis(piperidine-1,4-diyl))bis(ethane-2,1-diyl))bis(oxy))bis(2-oxoethane-2,1-diyl))bis(4,1-phenylene) bis(4,4-bis(((Z)-oct-5-en-1-yl)oxy)butanoate)], in series [2], the “Mean Encapsulation Efficiency (%)” value is 88.2%. Further, in series [3], the “Mean Diameter (nm)” value worked out at 72.1 nm and the “Mean PDI” value is recorded as 0.09.

Regarding `CC/C=C\CCCCOC(CCCC(=O)Oc1ccc(CC(=O)OCCC2CCN(CCSSCCN3CCC(CCOC(=O)Cc4ccc(OC(=O)CCCC(OCCCC/C=C\CC)OCCCC/C=C\CC)cc4)CC3)CC2)cc1)OCCCC/C=C\CC` [7-8, (((((disulfanediylbis(ethane-2,1-diyl))bis(piperidine-1,4-diyl))bis(ethane-2,1-diyl))bis(oxy))bis(2-oxoethane-2,1-diyl))bis(4,1-phenylene) bis(5,5-bis(((Z)-oct-5-en-1-yl)oxy)pentanoate)], in series [2], the “Mean Encapsulation Efficiency (%)” value is 87.7%. The “base editing observed in liver” value in the series on ALAS1 target site came to 13.7%. Further, in series [3], the “Mean Diameter (nm)” value is recorded as 74.9 nm and the “Mean PDI” value came to 0.08.
